One test deals with feline CaSR (Felis catus, UniProt A0ABI7YY68). The test is described as follows: HEK T-Rex/natClytin-fCaSR luminescence assay, activation of feline CaSR. It counts as cell-based. The procedure:
The cells used for the assays were HEK293 derived HEK T-Rex/natClytin-fCaSR cells. For the assays, the cells were plated on […] culture plates with a clear bottom for reading the luminescence in the wells. The setup of the assay for standard assays on the FlexStation was as follows. The wells containing the cells had 20 ul of calcium-free Tyrode's buffer at the beginning of the assay. 20 ul of each ligand at a specified concentration was injected on the cells and the response of the cells was measured for 90 sec at 1.94 sec intervals. The resulting curves were analyzed and reduced using the software provided by Molecular Devices, SoftMax Pro (version 5.4.1).
Each peptide was assayed on two separate occasions at least, with four repetitions of each concentration applied to the cells. In parallel, the same tests were run on a mock cell line with a mock vector, in order to confirm the specificity of any signals measured.
The data obtained from the FlexStation was used to trace dose-response curves for each ligand. These graphs were plotted using GraphPad Prism 7.03 software with the [Agonist] vs. response—Variable slope (four parameters) plot. The same formula was used to calculate the EC50 value with the associated Standard Error. Each plot contains the mean data points with an SEM calculated by the software for each data point.
One of the concerns during the planning of these assays was that it was possible that some of these peptides could bind the divalent calcium cation and cause a non-specific response from the receptor. In order to ensure that the interaction between the receptor and the peptides was measured and not with calcium, the peptides were synthesized in guaranteed calcium-free conditions. Similarly, all the assays were performed using calcium-free reagents.

Test [1] addresses feline Kokumi taste receptor (f-CaSR). Put plainly: feline Kokumi taste receptor assay (f-CaSR), agonistic activity of isolated samples. It counts as cell-based. The following applies: isolated samples from hydrolysate T648. How it is done: Aliquots of the isolated samples were tested for their agonistic activity in feline Kokumi taste receptor assays (f-CaSR).
The target in test [2] is feline calcium-sensing receptor (CaSR) (feline (cat)). Put plainly: cell-based or functional assay.
Test [3] addresses T1, feline calcium-sensing receptor (CaSR) (feline (cat)).
T1 chain: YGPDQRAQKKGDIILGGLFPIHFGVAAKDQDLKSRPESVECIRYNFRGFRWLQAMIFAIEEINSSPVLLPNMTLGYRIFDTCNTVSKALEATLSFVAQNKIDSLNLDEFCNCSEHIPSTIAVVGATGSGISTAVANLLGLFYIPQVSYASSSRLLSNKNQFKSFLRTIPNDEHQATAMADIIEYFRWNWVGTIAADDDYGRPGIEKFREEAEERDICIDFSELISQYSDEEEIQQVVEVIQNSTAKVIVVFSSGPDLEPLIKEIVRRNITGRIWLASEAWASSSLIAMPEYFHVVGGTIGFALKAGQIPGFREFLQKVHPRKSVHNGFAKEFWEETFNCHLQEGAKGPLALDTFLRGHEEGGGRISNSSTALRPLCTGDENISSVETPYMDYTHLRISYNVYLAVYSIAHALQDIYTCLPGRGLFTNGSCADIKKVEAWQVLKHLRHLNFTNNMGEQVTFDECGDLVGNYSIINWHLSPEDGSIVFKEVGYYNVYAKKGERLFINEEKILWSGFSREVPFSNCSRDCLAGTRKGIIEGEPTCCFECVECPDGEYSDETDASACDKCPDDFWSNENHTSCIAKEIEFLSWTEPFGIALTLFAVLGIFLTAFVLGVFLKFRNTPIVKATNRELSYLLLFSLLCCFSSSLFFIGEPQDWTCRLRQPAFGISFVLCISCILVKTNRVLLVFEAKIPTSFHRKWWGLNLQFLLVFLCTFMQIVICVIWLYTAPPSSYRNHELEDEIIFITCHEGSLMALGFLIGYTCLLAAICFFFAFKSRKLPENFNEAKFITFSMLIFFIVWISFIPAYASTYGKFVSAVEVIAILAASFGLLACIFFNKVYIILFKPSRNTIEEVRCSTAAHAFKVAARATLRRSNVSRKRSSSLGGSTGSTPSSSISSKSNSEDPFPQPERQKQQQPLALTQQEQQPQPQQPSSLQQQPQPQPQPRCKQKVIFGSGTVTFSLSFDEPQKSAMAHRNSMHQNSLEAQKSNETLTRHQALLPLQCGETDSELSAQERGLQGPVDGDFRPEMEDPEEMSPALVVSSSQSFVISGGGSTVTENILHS
The test is described as follows: cell-based or functional assay.

The mark [4] stands for this setting: HEK T-Rex/natClytin-fCaSR cells, calcium-free Tyrode's buffer, ≈ values are model estimates without standard error, read-out: EC50 ± Std Error.

Read-outs that look alike come from different tables or passages of the source. Where a SMILES comes first, the peptide text is derived from it. Where no end group is shown, it is not given here. [ ]: non-standard residue; d: D form. pY = N[CH](Cc1ccc(OP(=O)(O)O)cc1)C(=O)O; pT = C[CH](OP(=O)(O)O)[CH](N)C(=O)O; pS = N[CH](COP(=O)(O)O)C(=O)O

Take `CC(OP(=O)(O)O)C(N)C(=O)NC(CCC(=O)O)C(=O)NC(C(=O)O)C(C)OP(=O)(O)O` (stereo not drawn) [pThr-Glu-pThr] (H-[pT]-Glu-[pT]-OH; configuration not given here): the EC50 on feline CaSR (setting [4]) is 1.98 ± 0.07 mM.
On the same count and under the same terms, for `CSCC[C@H](NC(=O)CC[C@H](N)C(=O)O)C(=O)O` [γ-Glu-Met, reference compound] the value was about 6.7 mM; for `[Cl-].[Cl-].[Mg+2]` [MgC12, reference compound], 6.72 ± 0.13 mM.
Regarding `NC(COP(=O)(O)O)C(=O)NC(CCC(=O)O)C(=O)NC(COP(=O)(O)O)C(=O)O` (stereo not drawn) [pSer-Glu-pSer] (H-[pS]-Glu-[pS]-OH; configuration not given here), the EC50 at feline CaSR (setting [4]) was 3.04 ± 0.21 mM.
`N[C@@H](CCC(=O)N[C@@H](CS)C(=O)NCC(=O)O)C(=O)O` [GSH, reference compound]: the 50% effective concentration (EC50) at feline CaSR (setting [4]) is 6.71 ± 0.57 mM.
In the case of `CC(C)[C@H](NC(=O)CC[C@H](N)C(=O)O)C(=O)NCC(=O)O` [γ-Glu-Val-Gly, reference compound], a half-maximal response at feline CaSR (EC50) required 5.78 ± 2.41 mM.
For the molecule `CC[C@H](C)[C@H](N)C(=O)NCC(=O)N[C@@H](COP(=O)(O)O)C(=O)N[C@@H](CCC(=O)O)C(=O)N[C@@H](COP(=O)(O)O)C(=O)N[C@H](C(=O)N[C@@H](CCC(=O)O)C(=O)N[C@@H](CC(=O)O)C(=O)N[C@@H](CCC(N)=O)C(=O)O)[C@@H](C)O` [BC 06, Ile-Gly-pSer-Glu-pSer-Thr-Glu-Asp-Gln] (H-IG[pS]E[pS]TEDQ-OH; N-terminus and C-terminus assumed), the concentration for a half-maximal effect (EC50) in test [1] was 2 mM; at feline CaSR, about 1.6 mM.
For `CC[C@H](C)[C@H](NC(=O)[C@@H](N)CC(=O)O)C(=O)NCC(=O)N[C@@H](COP(=O)(O)O)C(=O)N[C@@H](CCC(=O)O)C(=O)N[C@@H](COP(=O)(O)O)C(=O)N[C@H](C(=O)N[C@@H](CCC(=O)O)C(=O)N[C@@H](CC(=O)O)C(=O)N[C@@H](CCC(N)=O)C(=O)N[C@@H](C)C(=O)O)[C@@H](C)O` [BC 10, Asp-Ile-Gly-pSer-Glu-pSer-Thr-Glu-Asp-Gln-Ala] (H-DIG[pS]E[pS]TEDQA-OH; N-terminus and C-terminus assumed), the midpoint of the response in test [1], the EC50, lay at 2 mM.
Consider IG[pS]E[pS]TEDQ, for which the f-CaSR activity (EC50) in test [2] turned out to be 2 mM.
On to `N[C@@H](CC(=O)O)C(=O)O` [Asp, aspartic acid, reference compound], for which the EC50 on feline CaSR (setting [4]) was about 6.1 mM.
On feline CaSR, `N[C@@H](CCC(=O)O)C(=O)O` [Glu, glutamic acid, reference compound] showed an EC50 of about 5.9 mM.
As to `CC(C)C(NC(=O)C(N)COP(=O)(O)O)C(=O)NC(COP(=O)(O)O)C(=O)O` (stereo not drawn) [pSer-Val-pSer] (H-[pS]-Val-[pS]-OH; configuration not given here), the half-maximal effective concentration (EC50) at feline CaSR (setting [4]) was 2.63 ± 0.04 mM.
As to `CC[C@H](C)[C@H](N)C(=O)NCC(=O)N[C@@H](COP(=O)(O)O)C(=O)N[C@@H](CCC(=O)O)C(=O)N[C@@H](COP(=O)(O)O)C(=O)N[C@H](C(=O)N[C@@H](CCC(=O)O)C(=O)N[C@@H](CC(=O)O)C(=O)N[C@@H](CCC(N)=O)C(=O)N[C@@H](C)C(=O)O)[C@@H](C)O` [BC 08, Ile-Gly-pSer-Glu-pSer-Thr-Glu-Asp-Gln-Ala] (H-IG[pS]E[pS]TEDQA-OH; N-terminus and C-terminus assumed), the EC50 in test [1] was 2 mM.
As to DIG[pS]E[pS]TEDQA, the f-CaSR activity (EC50) in test [2] stood at 2 mM.
As for 5-oxoproline-Lys-Glu-Pro [BC 02], the “f-CaSR activity (EC50)” value in test [1] is listed as “Not active”.
As to `NC(Cc1ccc(OP(=O)(O)O)cc1)C(=O)NC(CCC(=O)O)C(=O)NC(Cc1ccc(OP(=O)(O)O)cc1)C(=O)O` (stereo not drawn) [pTyr-Glu-pTyr] (H-[pY]-Glu-[pY]-OH; configuration not given here), at feline CaSR, the 50% effective concentration (EC50) worked out at 2.22 ± 0.22 mM.
Turning to `CC(C)C(NC(=O)C(N)CC(=O)O)C(=O)NC(CC(=O)O)C(=O)O` (stereo not drawn) [Asp-Val-Asp] (H-Asp-Val-Asp-OH; configuration not given here), the half-maximal effective concentration (EC50) at feline CaSR was 3.41 ± 0.05 mM.
For the molecule `[Ca+2].[Cl-].[Cl-]` [CaC12, CaCl2, reference compound], the EC50 on feline CaSR (setting [4]) was 1.6 ± 0.06 mM.
`CC(NC(=O)C(N)CC(=O)O)C(=O)NC(CCC(=O)O)C(=O)O` (stereo not drawn) [Asp-Ala-Glu] (H-Asp-Ala-Glu-OH; configuration not given here) displayed an EC50 on feline CaSR of 3.54 ± 0.05 mM.
In the case of `N[C@@H](CCC(=O)N[C@@H](Cc1ccc(O)cc1)C(=O)O)C(=O)O` [γ-Glu-Tyr, reference compound], on feline CaSR (setting [4]), the EC50 was about 6.9 mM.
Consider `N[C@@H](CCC(=O)N[C@@H](Cc1ccccc1)C(=O)O)C(=O)O` [γ-Glu-Phe, reference compound], for which, at feline CaSR (setting [4]), the concentration for a half-maximal effect (EC50) is about 7.8 mM.
`CC(C)C(NC(=O)C(N)CS)C(=O)NC(CS)C(=O)O` (stereo not drawn) [Cys-Val-Cys] (H-Cys-Val-Cys-OH; configuration not given here) registered an EC50 on feline CaSR of about 12.6 mM.
On the same count and under the same terms, for `NC(CO)C(=O)NC(CCC(=O)O)C(=O)NC(CO)C(=O)O` (stereo not drawn) [Ser-Glu-Ser] (H-Ser-Glu-Ser-OH; configuration not given here) the value was 3.56 ± 0.11 mM.
On to `CC(C)C(NC(=O)C(N)CC(=O)O)C(=O)NC(CCC(=O)O)C(=O)O` (stereo not drawn) [BC 01, Asp-Val-Glu] (H-Asp-Val-Glu-OH; configuration not given here), for which the EC50 in test [1] came to 6.32 mM; on feline CaSR, 3.3 ± 0.15 mM.
On feline CaSR, `CC(C)C(NC(=O)C(N)COP(=O)(O)O)C(=O)NC(CCC(=O)O)C(=O)O` (stereo not drawn) [pSer-Val-Glu] (H-[pS]-Val-Glu-OH; configuration not given here) came in with an EC50 of 3.04 ± 0.03 mM.
Same read-out and setting: for `CC(C)C(NC(=O)C(N)CCC(=O)O)C(=O)NC(CCC(=O)O)C(=O)O` (stereo not drawn) [Glu-Val-Glu] (H-Glu-Val-Glu-OH; configuration not given here) the value was 3.54 ± 0.05 mM; for `NC(CC(=O)O)C(=O)NC(CCC(=O)O)C(=O)NC(CCC(=O)O)C(=O)O` (stereo not drawn) [Asp-Glu-Glu] (H-Asp-Glu-Glu-OH; configuration not given here), 2.59 ± 0.09 mM.
As to IG[pS]E[pS]TEDQA, the f-CaSR activity (EC50) in test [2] is 2 mM.
`CC(C)C(NC(=O)C(N)CCC(=O)O)C(=O)NC(CC(=O)O)C(=O)O` (stereo not drawn) [Glu-Val-Asp]: on feline CaSR, the EC50 amounted to 3.32 ± 0.77 mM.
Regarding `CC(C)[C@H](NC(=O)CC[C@H](N)C(=O)O)C(=O)O` [γ-Glu-Val, reference compound], the concentration giving a half-maximal response (EC50) on feline CaSR (setting [4]) is about 3.9 mM.
The molecule `CC[C@H](C)[C@H](NC(=O)[C@@H](N)CCC(=O)O)C(=O)N[C@H](C(=O)N1CCC[C@H]1C(=O)N[C@@H](CC(N)=O)C(=O)N[C@@H](COP(=O)(O)O)C(=O)N[C@@H](C)C(=O)N[C@@H](CCC(=O)O)C(=O)N[C@@H](CCC(=O)O)C(=O)O)C(C)C` [BC 09, Glu-Ile-Val-Pro-Asn-pSer-Ala-Glu-Glu] (H-EIVPN[pS]AEE-OH; N-terminus and C-terminus assumed) displayed a 50% effective concentration (EC50) in test [1] of 3.16 mM.
For the molecule EIVPN[pS]AEE, the f-CaSR activity (EC50) in test [2] amounted to 3.16 mM.

B1: Asp-Val-Glu (peptide)
peptide: DVE
As for B1, the “f-CaSR activity (EC50)” value in test [3] amounted to 6.32 mM.

The term EC50 denotes the midpoint of the concentration-response curve.

The values above are taken from patent US20220256889A1, “PEPTIDES THAT MODULATE CALCIUM-SENSING RECEPTOR ACTIVITY FOR MODULATING KOKUMI TASTE AND PET FOOD PRODUCTS CONTAINING THE SAME” (MARS, INCORPORATED, priority 2019, published 2022).
